Results as given in patent publication US4886806A, “Flavone-3-carboxylic acids compounds and pharmaceutical compositions containing them” (Kali-Chemie Pharma GmbH, priority 1987, dated 1989).

Tests used:
[1] = test system: carrageenin foot edema in male Wistar rats; test: Inhibition of carrageenin foot edema in rats (Winter et al.); assay type: in vivo; conditions: Rattus norvegicus, 2 h after irritant
Procedure: A similar volume of isotonic sodium chloride solution was injected in the left hind foot. The volume of the each rat's foot was measured plethysmometrically both before and two hours after administration of the irritant, and the swelling of the foot volume after the carrageenin application was compared to the foot which was treated only with sodium chloride solution The inhibition of edema formation by the test substances in the treated animals was compared in percentage terms with the animals of the untreated control group.

[2] = test system: oxygen radical-forming activity of activated peritoneal exudate cells (PEC) of mice; test: Peak chemiluminescence (CL) test: inhibition of oxygen radical liberation from activated peritoneal exudate cells; assay type: cell-based; conditions: Mus musculus, 10^-4 Mol substance/l, added at peak of cell activity, read-out: Inhibition in vitro of the oxygen radical liberation, Chemiluminescence Test % inhibition, Pk. CL
Procedure: 1. To determine the inhibiting effect on the oxygen radical-forming activity of inflamed cells, the in vitro inhibition of the release of oxygen radicals from activated peritoneal exudate cells (=PEC) of mice was determined in the chemiluminescence (CL) test according to the method of Mueller-Peddinghaus (Int. J. Immunopharmac. 6, 455-466 (1984)). […] The intensity of the chemiluminescence is a measurement of the oxygen radical content in the suspension and thus the degree of activity of the inflamed cells. In this, three functionally different parameters are detected, the spontaneous CL, the induced CL and the peak CL. The spontaneous CL and the induced CL on the one hand and the peak CL on the other hand differ from each other because in the first two parameters the test substances are in contact with the cells for a 30 minute preincubation period before the inflammation irritant is added, whereas with the peak CL the cells are first stimulated, and the test substance is added at the peak of their activity. The measurement of the spontaneous CL thus detects the influence of the test substance on the relative rest activity of inflamed cells, the induced CL represents the effect of the test substances on the activatability of the cells and the inhibition of the peak CL indicates the effect of the test substances on the maximum activity of the inflamed cells. 1.1 Production of PEC suspension used in the test. In order to induce the PEC formation, female mice of 20-25 g body weight were each injected i.p. with 2 ml of a 3% solution of thioglycollate in sterile isotonic sodium chloride solution. Twenty four hours after the thioglycollate injection the cells, which predominantly consisted of polymorphonuclear leucocytes, were recovered by washing out of the abdominal cavity and washed twice. As cell culture medium there was added a commercially available solution under the designation RPMI 1640 (pH 7.2) (produced by Flow Laboratories, […], Germany), which contains 10% fetal calf serum (FCS, produced by Seromed GmbH, Munich, Germany) 18 μmol/l sodium bicarbonate and 2 μmol/l L-glutamine. The cell pellets of four animals each time were resuspended in cell culture medium, collected together and the suspension was made up to 2×10^6 cells per ml with cell culture medium. The cell suspensions were kept under ice cooling until their use the same day. 1.2 Production of the complement opsonized zymosan (=ZyC3 b) suspension used for activation. 200 mg zymosan (glycoprotein mixture isolated from the cell walls of brewer's yeast, Sacchomyces […], produced by Sigma Chemical Co., Munich, Germany) were suspended in 10 ml phosphate buffer solution according to Dulbecco (produced by Flow Laboratories, […], Germany), well stirred and heated for thirty minutes in a water bath to 100° C. After cooling, it was centrifuged for five minutes at 4° C. and at 600 ×g and the supernatant was discarded. The sediment was resuspended in 50 ml human serum and incubated for thirty minutes at 37° C. in a shaking water bath. Then it was centrifuged for five minutes at 600 ×g and 420 C., the supernatant decanted and the sediment washed with phosphate buffer solution. The working suspension of 8×10^-3 g ZyC3 b/ml was produced from the sediment by dilution with phosphate buffer solution (Mueller-Peddinghaus et al., Zbl. Vet. Med. B. 30, 559-575). 1.3 Chemiluminescence (CL) measurement (Peak-CL). The PEC suspension was divided into samples of 100 μl each, placed in test tubes, and these were incubated for ten minutes at a temperature of 3720 C. in a measurement device (Chemiluminescence analyzer, Laboratorium Prof. Berthold, Wildbad, Germany). Then in order to amplify the chemiluminescence, 100 μl lucigenin solution was added (final concentration 1.54×10^-4 mol/l) and incubated for 16 more minutes. The cells were then activated by the addition of 100 μl of the ZyC3 b suspension produced as described in section 1.2 plus 100 μl phosphate buffer solution. […]

male mice = test: Determination of the minimum toxic dose; assay type: in vivo; conditions: max. dose 300 mg/kg, 24 h
Procedure: 3. Determination of the minimum toxic dose.
Male mice of 20 to 25 g weight were given maximal doses of 300 mg/kg of test substance per os. The animals were carefully watched over a period of three hours for toxicity symptoms. Over a period of twenty-four hours after administration, all symptoms and deaths were recorded. Associated symptoms were also watched and recorded. If death or strongly toxic symptoms were noted, further mice were given increasingly lower doses. The lowest dose which brought about death or strongly toxic symptoms was reported as the minimum toxic dose.

[3] = test system: oxygen radical-forming activity of peritoneal exudate cells (PEC) of mice; test: Spontaneous CL and induced CL chemiluminescence test: inhibition of oxygen radical liberation from peritoneal exudate cells (30 min preincubation); assay type: cell-based; design: concentration or dose not given beside the values; conditions: for Inhibition in vitro of the oxygen radical liberation, Chemiluminescence Test % inhibition, Ind. CL: induced CL, after ZyC3b activation; for Inhibition in vitro of the oxygen radical liberation, Chemiluminescence Test % inhibition, Spnt. CL: spontaneous CL, before ZyC3b
Procedure: 1. To determine the inhibiting effect on the oxygen radical-forming activity of inflamed cells, the in vitro inhibition of the release of oxygen radicals from activated peritoneal exudate cells (=PEC) of mice was determined in the chemiluminescence (CL) test according to the method of Mueller-Peddinghaus (Int. J. Immunopharmac. 6, 455-466 (1984)). […] The intensity of the chemiluminescence is a measurement of the oxygen radical content in the suspension and thus the degree of activity of the inflamed cells. In this, three functionally different parameters are detected, the spontaneous CL, the induced CL and the peak CL. The spontaneous CL and the induced CL on the one hand and the peak CL on the other hand differ from each other because in the first two parameters the test substances are in contact with the cells for a 30 minute preincubation period before the inflammation irritant is added, whereas with the peak CL the cells are first stimulated, and the test substance is added at the peak of their activity. The measurement of the spontaneous CL thus detects the influence of the test substance on the relative rest activity of inflamed cells, the induced CL represents the effect of the test substances on the activatability of the cells and the inhibition of the peak CL indicates the effect of the test substances on the maximum activity of the inflamed cells. 1.1 Production of PEC suspension used in the test. In order to induce the PEC formation, female mice of 20-25 g body weight were each injected i.p. with 2 ml of a 3% solution of thioglycollate in sterile isotonic sodium chloride solution. Twenty four hours after the thioglycollate injection the cells, which predominantly consisted of polymorphonuclear leucocytes, were recovered by washing out of the abdominal cavity and washed twice. As cell culture medium there was added a commercially available solution under the designation RPMI 1640 (pH 7.2) (produced by Flow Laboratories, […], Germany), which contains 10% fetal calf serum (FCS, produced by Seromed GmbH, Munich, Germany) 18 μmol/l sodium bicarbonate and 2 μmol/l L-glutamine. The cell pellets of four animals each time were resuspended in cell culture medium, collected together and the suspension was made up to 2×10^6 cells per ml with cell culture medium. The cell suspensions were kept under ice cooling until their use the same day. 1.2 Production of the complement opsonized zymosan (=ZyC3 b) suspension used for activation. 200 mg zymosan (glycoprotein mixture isolated from the cell walls of brewer's yeast, Sacchomyces […], produced by Sigma Chemical Co., Munich, Germany) were suspended in 10 ml phosphate buffer solution according to Dulbecco (produced by Flow Laboratories, […], Germany), well stirred and heated for thirty minutes in a water bath to 100° C. After cooling, it was centrifuged for five minutes at 4° C. and at 600 ×g and the supernatant was discarded. The sediment was resuspended in 50 ml human serum and incubated for thirty minutes at 37° C. in a shaking water bath. Then it was centrifuged for five minutes at 600 ×g and 420 C., the supernatant decanted and the sediment washed with phosphate buffer solution. The working suspension of 8×10^-3 g ZyC3 b/ml was produced from the sediment by dilution with phosphate buffer solution (Mueller-Peddinghaus et al., Zbl. Vet. Med. B. 30, 559-575). 1.3 Chemiluminescence (CL) measurement (Peak-CL). […] At the end of this preincubation phase, 100 μl lucigenin were added, and in the course of the subsequent sixteen minute incubation phase the spontaneous CL parameter was determined with two measuring points. Then 100 μl ZyC3 b+100 μl phosphate buffer were added, and during the course of the subsequent twenty-four minute cell activation the induced CL parameter was measured with three measuring points. All measurements were determined twice. The parameters spontaneous CL and induced CL were determined on the same day with two separate cell pools.

| SMILES | inhibition in vivo at 215 µmol/kg ([1]; ip, 215 μmol/kg i.p.) | inhibition in vivo at 215 µmol/kg ([1]; po, 215 μmol/kg p.o.) | inhibition at 100 µM (stock) [2] | Minimal toxic dose mg/kg mouse p.o. (male mice) | Inhibition in vitro of the oxygen radical liberation, Chemiluminescence Test % inhibition, Ind. CL [3] | Inhibition in vitro of the oxygen radical liberation, Chemiluminescence Test % inhibition, Spnt. CL [3] | inhibition in vivo at 100 µmol/kg ([1]; po, 100 μmol/kg p.o.) |
| --- | --- | --- | --- | --- | --- | --- | --- |
| O=C(NCCCCN1CCN(c2ncccn2)CC1)c1c(-c2ccccc2)oc2ccccc2c1=O [Example 25] | 58% | 25% |  |  |  |  |  |
| CCN(CC)CCNC(=O)c1c(-c2ccccc2)oc2ccccc2c1=O [Example 22b] |  |  | 25% | 300 mg/kg | 43% | 67% |  |
| CCCCCCCCCCCCCCCCOc1ccc(-c2oc3ccccc3c(=O)c2C(=O)N2CCN(Cc3ccccc3)CC2)cc1 [Example 36] |  | 30% |  |  |  |  |  |
| COc1cc(-c2oc3ccccc3c(=O)c2C(=O)OCCN2CCN(c3ccccn3)CC2)cc(OC)c1OC [Example 47] |  |  | 70% | 100 mg/kg | 76% | 78% |  |
| COc1cc(-c2oc3ccccc3c(=O)c2C(=O)OCCN2CCCC2)cc(OC)c1OC [Example 49] |  |  | 41% | 300 mg/kg | 64% | 86% |  |
| CN1CCN(C(=O)c2c(-c3ccccc3)oc3ccccc3c2=O)CC1 [Example 16a] |  |  |  |  |  |  | 20% |
| CCC(=O)Oc1cc(-c2oc3ccccc3c(=O)c2C(=O)N2CCN(c3ccccn3)CC2)cc(OC(=O)CC)c1OC(=O)CC [Example 56] |  |  | 37% |  | 70% | 52% |  |
| O=C(c1c(-c2ccccc2)oc2ccccc2c1=O)N1CC[N+]([O-])(Cc2ccccc2)CC1 [Example 5, 3-[(4-benzylpiperazin-1-yl)-carbonyl]-flavone N-oxide] |  |  | 12% | > 300 mg/kg | 25% | 49% |  |
| O=C(c1c(-c2cc(O)c(O)c(O)c2)oc2ccccc2c1=O)N1CCN(c2ccccn2)CC1 [Example 10b, 3',4',5'-Trihydroxy-3-{[4-(2-pyridyl)-piperazin-1-yl]-carbonyl}flavone] | 35% | 30% |  |  |  |  |  |
| O=C(NCCN1CCCC1)c1c(-c2ccccc2)oc2ccccc2c1=O [Example 20b] |  |  | 27% | 100 mg/kg | 43% | 72% |  |
| COc1ccc(-c2oc3ccccc3c(=O)c2C(=O)N2CCN(C)CC2)cc1 [Example 28] |  |  | 5% | > 300 mg/kg | 29% | 54% |  |
| COc1cc(-c2oc3ccccc3c(=O)c2C(=O)NCCCC[N+]2([O-])CC[N+]([O-])(Cc3ccccc3)CC2)cc(OC)c1OC (stereo not shown) [Example 52] | 53% |  |  |  |  |  |  |
| O=C(NC1CCN(Cc2ccccc2)CC1)c1c(-c2ccccc2)oc2ccccc2c1=O [Example 18b] |  |  | 41% | 300 mg/kg | 50% | 30% |  |
| O=C(NCCCCN1CCN(Cc2ccccc2)CC1)c1c(-c2ccccc2)oc2ccccc2c1=O [Example 23] |  |  | 63% | 300 mg/kg | 88% | 95% |  |
| COc1cc(-c2oc3ccccc3c(=O)c2C(=O)NCCCN2CCOCC2)cc(OC)c1OC [Example 46] |  |  | 11% | > 300 mg/kg | 25% | 52% |  |
